These results are taken from ChEMBL document CHEMBL1152685, “Structural basis of the selectivity of the beta(2)-adrenergic receptor for fluorinated catecholamines” (Bioorg Med Chem, 2009).

Assay [1] has as its target Beta-2 adrenergic receptor (Homo sapiens, UniProt P07550). As to the kind of experiment: Displacement of [3H]dihydroalprenolol from human adrenergic beta2 receptor expressed in COS7 cell membrane.
The target of assay [2] is Beta-2 adrenergic receptor (Homo sapiens, UniProt P07550, N293Q). In words: Displacement of [3H]dihydroalprenolol from human adrenergic beta2 receptor N293Q mutant expressed in COS7 cell membrane.
The target in assay [3] is Beta-2 adrenergic receptor (Homo sapiens, UniProt P07550, N293F). In words: Displacement of [3H]dihydroalprenolol from human adrenergic beta2 receptor N293F mutant expressed in COS7 cell membrane.
For assay [4], the target named is Beta-2 adrenergic receptor (Homo sapiens, UniProt P07550, V117C). As to the kind of experiment: Displacement of [3H]dihydroalprenolol from human adrenergic beta2 receptor V117C mutant expressed in COS7 cell membrane.
The target of assay [5] is Beta-2 adrenergic receptor (Homo sapiens, UniProt P07550, D192G/F193V). In words: Displacement of [3H]dihydroalprenolol from human adrenergic beta2 receptor D192G, F193V mutant expressed in COS7 cell membrane.
Assay [6] has as its target Beta-2 adrenergic receptor (Homo sapiens, UniProt P07550, N293L). As to the kind of experiment: Displacement of [3H]dihydroalprenolol from human adrenergic beta2 receptor N293L mutant expressed in COS7 cell membrane.
The target of assay [7] is Beta-2 adrenergic receptor (Homo sapiens, UniProt P07550, N293A). In words: Displacement of [3H]dihydroalprenolol from human adrenergic beta2 receptor N293A mutant expressed in COS7 cell membrane.
Sequence of Beta-2 adrenergic receptor (Homo sapiens, UniProt P07550, N293A) (P07550 whole entry N293A): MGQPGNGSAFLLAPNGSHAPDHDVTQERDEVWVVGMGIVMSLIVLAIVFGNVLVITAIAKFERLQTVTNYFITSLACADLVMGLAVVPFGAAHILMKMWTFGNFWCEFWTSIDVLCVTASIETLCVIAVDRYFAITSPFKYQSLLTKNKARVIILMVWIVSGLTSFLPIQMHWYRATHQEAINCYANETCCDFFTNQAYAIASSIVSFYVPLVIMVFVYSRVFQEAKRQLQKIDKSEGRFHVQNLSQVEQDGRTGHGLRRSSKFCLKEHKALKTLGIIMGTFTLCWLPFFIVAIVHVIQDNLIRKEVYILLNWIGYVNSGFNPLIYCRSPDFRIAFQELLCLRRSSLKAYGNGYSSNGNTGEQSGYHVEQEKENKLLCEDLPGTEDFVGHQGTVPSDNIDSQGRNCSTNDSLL

Sequence of Beta-2 adrenergic receptor (Homo sapiens, UniProt P07550, D192G/F193V) (P07550 whole entry D192G/F193V): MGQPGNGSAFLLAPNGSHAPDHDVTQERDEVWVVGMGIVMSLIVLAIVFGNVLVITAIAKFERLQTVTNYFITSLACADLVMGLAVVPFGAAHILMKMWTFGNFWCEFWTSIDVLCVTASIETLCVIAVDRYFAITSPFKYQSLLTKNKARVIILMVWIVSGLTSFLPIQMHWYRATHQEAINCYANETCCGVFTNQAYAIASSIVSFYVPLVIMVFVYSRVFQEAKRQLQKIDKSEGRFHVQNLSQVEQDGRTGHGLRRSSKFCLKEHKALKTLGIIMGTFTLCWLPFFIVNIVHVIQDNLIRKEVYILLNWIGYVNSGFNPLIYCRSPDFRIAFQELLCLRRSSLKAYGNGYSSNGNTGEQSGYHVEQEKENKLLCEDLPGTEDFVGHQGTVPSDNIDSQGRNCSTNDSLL
Sequence of Beta-2 adrenergic receptor (Homo sapiens, UniProt P07550, V117C) (P07550 whole entry V117C): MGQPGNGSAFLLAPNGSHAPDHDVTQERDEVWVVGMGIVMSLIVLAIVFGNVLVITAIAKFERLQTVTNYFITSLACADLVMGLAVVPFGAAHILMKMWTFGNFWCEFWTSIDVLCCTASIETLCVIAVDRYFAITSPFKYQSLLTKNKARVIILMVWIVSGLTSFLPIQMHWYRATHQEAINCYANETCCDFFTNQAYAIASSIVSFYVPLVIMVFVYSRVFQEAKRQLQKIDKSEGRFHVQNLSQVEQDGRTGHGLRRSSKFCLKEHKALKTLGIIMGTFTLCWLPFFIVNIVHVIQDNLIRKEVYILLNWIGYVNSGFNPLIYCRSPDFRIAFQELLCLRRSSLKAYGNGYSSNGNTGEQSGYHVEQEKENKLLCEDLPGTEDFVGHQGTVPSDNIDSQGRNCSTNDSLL
Sequence of Beta-2 adrenergic receptor (Homo sapiens, UniProt P07550, N293Q) (P07550 whole entry N293Q): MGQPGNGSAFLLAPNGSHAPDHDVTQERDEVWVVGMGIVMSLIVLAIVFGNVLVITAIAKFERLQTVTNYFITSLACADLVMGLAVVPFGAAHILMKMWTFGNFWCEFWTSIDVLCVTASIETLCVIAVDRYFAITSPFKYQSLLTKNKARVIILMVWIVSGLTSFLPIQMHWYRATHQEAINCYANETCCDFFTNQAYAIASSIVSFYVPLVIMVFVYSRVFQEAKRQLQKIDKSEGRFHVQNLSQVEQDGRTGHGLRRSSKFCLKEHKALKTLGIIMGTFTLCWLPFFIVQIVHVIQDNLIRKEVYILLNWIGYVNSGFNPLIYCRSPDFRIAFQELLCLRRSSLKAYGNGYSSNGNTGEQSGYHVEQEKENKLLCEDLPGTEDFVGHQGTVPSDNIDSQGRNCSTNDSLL
Sequence of Beta-2 adrenergic receptor (Homo sapiens, UniProt P07550, N293F) (P07550 whole entry N293F): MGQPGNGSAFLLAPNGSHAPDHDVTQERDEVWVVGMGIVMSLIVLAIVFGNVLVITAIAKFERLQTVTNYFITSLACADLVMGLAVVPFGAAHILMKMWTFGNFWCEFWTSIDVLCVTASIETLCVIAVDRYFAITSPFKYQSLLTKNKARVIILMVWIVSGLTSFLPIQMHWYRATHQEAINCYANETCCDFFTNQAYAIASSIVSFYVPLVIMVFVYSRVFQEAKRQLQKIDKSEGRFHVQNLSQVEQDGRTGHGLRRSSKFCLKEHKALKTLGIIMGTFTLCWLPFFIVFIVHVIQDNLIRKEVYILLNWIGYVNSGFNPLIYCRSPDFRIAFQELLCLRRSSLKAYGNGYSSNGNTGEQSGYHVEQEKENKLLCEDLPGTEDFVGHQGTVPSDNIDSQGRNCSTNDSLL
Sequence of Beta-2 adrenergic receptor (Homo sapiens, UniProt P07550, N293L) (P07550 whole entry N293L): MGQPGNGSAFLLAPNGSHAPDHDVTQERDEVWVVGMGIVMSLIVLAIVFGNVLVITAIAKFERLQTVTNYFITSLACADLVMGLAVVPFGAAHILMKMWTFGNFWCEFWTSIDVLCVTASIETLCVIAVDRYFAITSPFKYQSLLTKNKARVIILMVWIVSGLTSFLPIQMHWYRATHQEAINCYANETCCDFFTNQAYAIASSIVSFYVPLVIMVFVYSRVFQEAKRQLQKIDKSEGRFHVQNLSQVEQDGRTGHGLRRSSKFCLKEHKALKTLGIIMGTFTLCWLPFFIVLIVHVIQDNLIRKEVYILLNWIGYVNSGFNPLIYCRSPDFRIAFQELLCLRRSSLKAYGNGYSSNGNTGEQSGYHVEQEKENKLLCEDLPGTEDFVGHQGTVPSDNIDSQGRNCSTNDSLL
Sequence of Beta-2 adrenergic receptor (Homo sapiens, UniProt P07550) (P07550 whole entry): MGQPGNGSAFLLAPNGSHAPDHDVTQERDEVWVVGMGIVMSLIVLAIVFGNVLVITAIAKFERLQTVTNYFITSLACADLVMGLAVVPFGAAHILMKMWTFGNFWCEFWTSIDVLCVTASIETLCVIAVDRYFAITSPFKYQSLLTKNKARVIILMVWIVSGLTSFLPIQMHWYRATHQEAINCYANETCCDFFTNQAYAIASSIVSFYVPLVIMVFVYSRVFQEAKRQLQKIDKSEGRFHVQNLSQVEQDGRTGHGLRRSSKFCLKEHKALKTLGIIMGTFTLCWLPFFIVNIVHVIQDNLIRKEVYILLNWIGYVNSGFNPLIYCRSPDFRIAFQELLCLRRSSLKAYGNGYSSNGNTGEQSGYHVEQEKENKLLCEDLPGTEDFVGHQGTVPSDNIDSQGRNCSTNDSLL

Take `NC[C@H](O)c1ccc(O)c(O)c1F`: the Ki is 1160 µM in assay [1]; 3330 µM in assay [2]; 70.1 µM in assay [3]; greater than 2000 µM in assay [4]; greater than 2000 µM in assay [5]; 188 µM in assay [6]. In assay [7], this molecule yielded an inhibition constant (Ki) of 5450 µM.

In the case of `NC[C@H](O)c1cc(O)c(O)cc1F`, the Ki is 15.8 µM in assay [1]; 68.9 µM in assay [2]; 216 µM in assay [3]; 39.8 µM in assay [4]; 19.5 µM in assay [5]; 117 µM in assay [6]. Further, the Ki in assay [7] was 319 µM.
